Reference: PubChem BioAssay AID1996
In brackets after ≈: the same amount, converted by molar mass.

settings: buffer; pH 7.4; 200.0 µM

Compound | solubility kinetic [µg/mL]
CCC(=O)Nc1ccc(NCc2ccc(-c3ccccc3)cc2)cc1 | 28.6 (≈ 86.6 µM)
Cc1ccc(S(=O)(=O)NCc2ccco2)cc1C(N)=O | > 44.1
O=C(NCCCn1ccnc1)c1ccc(-c2cccc(C(F)(F)F)c2)o1 | > 54.5
CNC(=S)N(CCCn1ccnc1)Cc1c(F)cccc1Cl | 49 (≈ 144 µM)
O=C1CC2(CCN(C(=O)c3ccc(F)c(F)c3)CC2)Oc2ccccc21 | > 53.6
Cc1cc(C(=O)COC(=O)C(C)NC(N)=O)c(C)n1Cc1ccco1 (configuration not stated) | 45.7 (≈ 132 µM)
COc1cccc(C(=O)Nc2ccc(NC(=O)C3CC3)nc2)c1 | 1.6 (≈ 5.14 µM)
COc1ccc2nc(C)c3c(c2c1)OC(C(C)(Cl)Br)C3 (configuration not stated) | 4 (≈ 11.2 µM)
COC(=O)CSc1ncnc2scc(-c3ccccc3)c12 | 11.2 (≈ 35.4 µM)
Cc1cccc(C(=O)Nc2sc3c(c2C(=O)O)CCCC3)c1 | 6.9 (≈ 21.9 µM)
CN(C)C(CNC(=O)c1c(F)cccc1Cl)c1ccco1 (configuration not stated) | > 46.6
C=CCNC(=O)C1CCN(S(=O)(=O)c2cccs2)CC1 | > 47.2
CCOc1ccccc1NC(=O)c1cnccn1 | > 36.5
CN1Cc2c(N3CCOCC3)nc3sc(C#N)c(N)c3c2CC1(C)C | 15 (≈ 42 µM)
Cl.Nc1nc2cc3ccccc3cc2[nH]c1=O | 5.2
O=C(NC1CCN(Cc2ccccc2Cl)CC1)c1ccccc1 | 47.6 (≈ 145 µM)
CC(=O)N1CCC(O)(c2ccc3c(c2)OCO3)CC1 | 37.1 (≈ 141 µM)
NS(=O)(=O)c1ccc(SCc2ccccc2)nc1 | 10.4 (≈ 37.1 µM)
COc1ccc(CNC(=O)C2CCCN2C)cc1OC (configuration not stated) | 37 (≈ 133 µM)
COc1ccc2sc(NCc3ccccc3)nc2c1 | 2 (≈ 7.4 µM)
c1ccc(OCCCn2ccnc2)cc1 | 25.1 (≈ 124 µM)
COc1ccc(CNC(=O)CSCc2c(F)cccc2Cl)cc1 | 5.5 (≈ 15.5 µM)
CCC(=O)c1cn(CC(=O)Nc2ccc(OC)cc2)c2ccccc12 | < 0.4
Cc1nc2ccc(NC(=O)C3=NN(C)C(=O)CC3)cc2s1 | > 45.4

Compound | solubility kinetic [µg/mL]
Cc1ccc(NC(=O)C(=O)NCCc2c[nH]c3ccccc23)c(C)c1 | 0.4 (≈ 1.19 µM)
CN(c1ccccc1)S(=O)(=O)c1ccc(Cl)c(C(=O)NCc2ccco2)c1 | 47.2 (≈ 117 µM)
N#Cc1ccc(CN2C=NS(=O)(=O)c3ccccc32)cc1 | 43.7 (≈ 147 µM)
O=S(=O)(c1ccc(F)cc1)N1CN2CCN(C2)C1 | > 40.7
COc1cc(/C=C/c2nc3ccccc3c(=O)[nH]2)ccc1OC(F)F | 1.9 (≈ 5.52 µM)
O=[N+]([O-])C(/C=C(/Cl)[N+](=O)[O-])=C(N1CCCCC1)N1CCCCC1 | 29.1 (≈ 84.4 µM)
O=C(c1ccc([N+](=O)[O-])cc1[N+](=O)[O-])n1cnc2ccccc21 | 22.9 (≈ 73.3 µM)
Cn1c(Oc2ccc(F)cc2F)c(C=O)c2ccccc21 | 16.6 (≈ 57.8 µM)
Cc1cccc(NC(=O)c2c(O)c3ccccc3n(C)c2=O)c1 | < 0.3
NC(=S)Nc1cc(Cl)ccc1Cl | 30.2 (≈ 137 µM)
S=C1NCN(Cc2cccnc2)CN1c1cccc2ccccc12 | > 50.2
N#Cc1c(-c2ccc(Cl)cc2)c2c([nH]c1=O)-c1ccccc1OC2 | 7.6 (≈ 22.7 µM)
CC1(C)Cc2c(c(-c3ccccc3)nc3sc4c(=O)[nH]c(=S)[nH]c4c23)CO1 | 10.5 (≈ 26.5 µM)
CCCCN(CC)Cc1c(O)ccc2c(-c3ccccc3)cc(=O)oc12 | 36.1 (≈ 103 µM)
CCOc1ccc(C(=O)NCc2ccc3c(c2)OCO3)cc1 | 11.3 (≈ 37.8 µM)
O=C(NC(=S)Nc1ccc(O)cc1)C1CCCC1 | > 39.7
CSc1nc2ccc(NC(=O)c3ccc(=O)[nH]c3)cc2s1 | 16.1 (≈ 50.7 µM)
COc1ccc(NS(=O)(=O)N2CCOCC2)cc1 | > 40.8
O=C(c1ccccc1F)N1CCC2(CC1)OCCO2 | > 39.8
CCc1cc(S(N)(=O)=O)cc(CC)c1NC(C)=O | 38.4 (≈ 142 µM)
O=C(NCC1CCCO1)c1cccc(Oc2ccccc2)c1 (configuration not stated) | 40.1 (≈ 135 µM)
CCOc1ccccc1Nc1nnc(SCC(=O)NC2CC2)s1 | > 52.6
CC(C)(C)NC(=O)CSc1nc2ccccc2c(=O)[nH]1 | 30.9 (≈ 106 µM)
COc1ccccc1OCC(O)CN1CCOCC1 (configuration not stated) | 37.4 (≈ 140 µM)

Compound | solubility kinetic [µg/mL]
CC(C)C(NC(=O)c1ccco1)C(=O)NCc1ccc(C(=O)O)cc1 (configuration not stated) | > 51.7
COc1cc(OC)cc(C(=O)Nc2cccc3ccccc23)c1 | 1.9 (≈ 6.18 µM)
Cc1ccc(NC(=O)O/N=C/c2ccc(F)cc2)cc1 | 23.1 (≈ 84.8 µM)
CCOC(=O)Nc1ccc2c(c1)N(C(=O)CN)c1ccccc1CC2 | 36.6 (≈ 108 µM)
CC(O)c1nc2ccccc2n1C(C)c1ccccc1 (configuration not stated) | > 40
Cc1ccc(N=C2c3ccccc3C(=O)C2[N+](=O)[O-])cc1C (configuration not stated) | 8.8 (≈ 29.9 µM)
CCN(CC)c1ccc2c(Nc3ccccc3)c(C=O)c(=O)oc2c1 | < 0.4
CSc1cccc(NC(=O)C(=O)NCc2ccccc2)c1 | < 0.3
CC(=O)Nc1cccc(OCCCNC(=O)c2ccc(C(C)(C)C)cc2)c1 | 23.2 (≈ 63 µM)
COc1ccc2cc(CCl)c(Cl)nc2c1 | 19.2 (≈ 79.3 µM)
CC(C)CCN1CCN(Cc2cccn2-c2cccnc2)CC1CCO (configuration not stated) | > 53.5
COc1ccccc1CNC(=O)c1nccnc1CO | > 41
O=S(=O)(Nc1ccccc1N1CCOCC1)c1cccs1 | 4.2 (≈ 12.9 µM)
CC(=O)Nc1ccc(OCC(=O)NC(C)c2ccc(F)cc2)cc1 (configuration not stated) | > 49.6
CCC(C)NC(=O)C1CCC(=O)N1CCc1ccccc1 (configuration not stated) | > 43.3
Cc1cccc(NC(=O)C2COc3ccccc3O2)n1 (configuration not stated) | 35.9 (≈ 133 µM)
COCc1[nH]c(=S)c(C#N)cc1C(=O)OC | 27.9 (≈ 117 µM)
CCC(=O)N1CCN(c2ccccc2NC(=O)c2ccc([N+](=O)[O-])o2)CC1 | 32.4 (≈ 87 µM)
COC(=O)c1c(C)noc1-c1ccc(Cl)cc1 | 1.6 (≈ 6.36 µM)
O=C1CCCN1CN(C(=O)c1ccccc1)c1ccccc1 | > 44.2
CSc1cccc(N2CC(C(=O)N3CCN(S(=O)(=O)c4ccccc4Cl)CC3)CC2=O)c1 (configuration not stated) | 23.2 (≈ 47 µM)
COc1ccc(OC)c(C(=O)COC(=O)c2cccnc2Cl)c1 | > 50.4
C/C(=C\c1cccc(Cl)c1)C(=O)c1c(C)cc(C)[nH]c1=O | > 45.3
C/C(=N/NC(=O)c1ccncc1)c1ccccc1 | > 35.9

Compound | solubility kinetic [µg/mL]
O=C(O)C1CCN(S(=O)(=O)c2cccc3cccnc23)CC1 | > 48.1
Cn1c(N)c(C(=O)COC(=O)/C=C/c2ccccc2)c(=O)n(C)c1=O | 11.6 (≈ 33.8 µM)
COc1ccc(CN(C)C(=O)Cc2c[nH]c3ccccc23)cc1 | 30.4 (≈ 98.6 µM)
CC1CC(C)CN(C(=O)C(C)N2CCN(S(=O)(=O)c3ccccc3F)CC2)C1 (configuration not stated) | 51.7 (≈ 126 µM)
O=C(NC1CCS(=O)(=O)C1)c1ccc(Br)s1 (configuration not stated) | > 48.6
CC1CC(OC(=O)c2ccccc2)(c2ccccc2)C(C)CN1C (configuration not stated) | > 48.5
O=Cc1ccc(OCC(=O)Nc2ccccc2-c2ccccc2)cc1 | 0.8 (≈ 2.41 µM)
COc1ccc(CNC(=O)c2cc(=O)c3ccccc3o2)cc1 | 12 (≈ 38.8 µM)
COc1cccc(/C=N/c2nc3ccccc3n2C)c1O | 23.1 (≈ 82.1 µM)
CS(=O)(=O)c1cccc(S(=O)(=O)N2CCCCCC2)c1 | > 47.6
c1ccc(Nc2nc(-c3ccccc3)nc3ccccc23)cc1 | 2.5 (≈ 8.41 µM)
COc1ccc(NC(=S)NC(=O)/C=C/c2ccco2)c(OC)c1 | < 0.4
CN(Cc1ccco1)S(=O)(=O)c1csc(C(N)=O)c1 | 44.7 (≈ 149 µM)
Cc1ccc(OC(C)C(=O)N(C)Cc2ccccc2)c([N+](=O)[O-])n1 (configuration not stated) | 46.9 (≈ 142 µM)
CC(C)[C@H](NC(=O)OCc1ccccc1)C(=O)OCC(=O)c1ccccc1 | 16.1 (≈ 43.6 µM)
CCOC(=O)CN1C(=N)N(c2nc(NC(C)C)nc(OC)n2)CC1=O | > 52.7
CCN(c1cccc(C)c1)S(=O)(=O)c1ccc2c(c1)oc(=O)n2C | 2.7 (≈ 7.79 µM)
Cc1ccc(CNCCc2ccccc2F)s1 | 33.2 (≈ 133 µM)
COc1ccc(CN2CCCCCC2)cc1OC | 21.6 (≈ 86.6 µM)
Cc1ccc2c(c1)C1C[N+](C)(CC(=O)c3ccccc3)CCC1N2C(=O)c1ccccc1Cl.[Br-] (configuration not stated) | 78
CCOc1ccc(Br)cc1S(=O)(=O)N1CCSC1 | 7.2 (≈ 20.4 µM)
NS(=O)(=O)c1ccc(CCNS(=O)(=O)c2ccc(Cl)s2)cc1 | > 57.1
O=C(O)CC1(CC(=O)Nc2ccc(Cl)cc2C(=O)c2ccccc2)CCCC1 | > 60
CCc1ccc(OCC(=O)Oc2ccc([N+](=O)[O-])cc2)cc1 | 29.4 (≈ 97.6 µM)

Compound | solubility kinetic [µg/mL]
COc1ccc(CN(CCC(c2ccco2)C(C)C)C(C)=O)cc1OC (configuration not stated) | 49.2 (≈ 137 µM)
CCOC(=O)c1ccccc1NC(=O)CSc1nc2ccccc2c(=O)n1CCCN1CCOCC1 | 18.6 (≈ 36.4 µM)
CN1CC(=O)Nc2ccc([N+](=O)[O-])cc2C1=O | > 35.3
Cc1cnc(C(=O)OCC(=O)Nc2cc(Cl)ccc2C#N)cn1 | > 49.6
COc1ccc(C)cc1Nc1nc(N)c2ccccc2n1.Cl | 47.1
CCCCc1nc2cc(Cl)ccc2o1 | < 0.4
NS(=O)(=O)c1ccc(CCNC(=O)C2CCN(C(=O)Nc3ccccc3)CC2)cc1 | 63.9 (≈ 148 µM)
O=C(c1ccc(Cl)cc1Cl)N1CCN(c2ccccn2)CC1 | > 50.4
NC(=NCCc1ccccc1)NS(=O)(=O)c1ccccc1F | > 48.2
Cn1c(SCc2ccc(F)cc2)nnc1-c1ccncc1 | > 45.1
O=C(O)c1ccc2c(c1)C(=O)N(c1ccc(Nc3ccccc3)cc1)C2=O | 51.6 (≈ 144 µM)
Cn1cnc([N+](=O)[O-])c1NCc1ccccc1 | 33.5 (≈ 144 µM)
CNc1ccc(C(=O)OCC(=O)NC(=O)NC2CCCC2)cc1[N+](=O)[O-] | 1.7 (≈ 4.67 µM)
Cc1cc2c(NCc3ccccc3)ncnc2s1.Cl | 41.7
COc1ccc(OCC(=O)OCC(=O)NC2CCCC2)cc1 | > 46.1
COc1ccc(C2C3=C(CCCC3=O)NC3=C2C(=O)c2ccccc23)cc1 (configuration not stated) | < 0.8
CC(C)(C)c1ccc(C(=O)C2CCCN(C3CCC3)C2)cc1 (configuration not stated) | 37.9 (≈ 127 µM)
Cc1c(Cl)cccc1NC(=O)CCN1C(=O)NC(C)(C)C1=O | > 48.6
COc1ccc(C(=O)Nc2cccc(S(=O)(=O)N(C)C)c2)cc1S(=O)(=O)N1CCOCC1 | 12.3 (≈ 25.4 µM)
C=C(C)C(=O)Oc1ccc(N2C(=O)[C@@H]3C4C=CC(C4)[C@@H]3C2=O)cc1 | 10.1 (≈ 31.2 µM)
Cc1ccc(NC(=O)COC(=O)c2cccnc2)cc1 | > 40.5
